Several values for one entry are separate records, joined by “and”; a condition that tells them apart may be missing. Equal entries are not always repeated.
Legend:
[1] = Microdialysis (brain striatal dialysate) in C57Bl6 mice; conditions: for Fosmetpantotenate Total Concentration in Mouse Striatal Dialysate (Corrected for Dilution): individual mice, non-fasted male C57/Bl6; for Fosmetpantotenate Total Concentration in Mouse Striatal Dialysate (Corrected for Dilution), Mean: mean of 8 mice
Method: Mice were anesthetized using isoflurane (2%, 800 mL/min O2).
For oral dosing experiments, MetaQuant microdialysis probes (regenerated cellulose membrane, BrainLink, the Netherlands) were inserted into the striatum (3 mm exposed surface). Coordinates for the tips of the probes for mice were anterior-posterior (AP) = +0.8 mm from bregma, lateral (L) = -1.7 mm from midline, and ventral (V) = -4.0 mm from dura, the toothbar set at 0 mm.
Microdialysis animal dosing and sample collection: Adult non-fasted male C57Bl6 mice (20–29 g; Harlan Laboratories, Livermore, CA), and Macaca fascicularis (4–9 kg, 3–6 yr old) were used for the experiments. For oral dosing, fosmetpantotenate was formulated as a solution in 20% hydroxypropyl-beta-cyclodextrin in 50 mM citrate buffer in water pH 5.0 and administered using a dose volume of 10 mL/kg. Mice (N = 6 serially sampled) received fosmetpantotenate as a single oral dose at 700 mg/kg and monkeys received a single oral dose at either 100 mg/kg (N = 4 serially sampled) or 300 mg/kg (N = 2 serially sampled).
Microdialysis: On the morning of the microdialysis experiment, a MetaQuant probe was inserted into the guide shaft targeting the head of the caudate nucleus and perfused at a rate of 0.15 μL/min aCSF containing 0.2% (w/v) BSA, with a carrier flow of 0.8 μL/min of ultrapure water.
A single 30 min pre-dose basal dialysate sample was collected from mice over -0.5 to 0 h, and three 30 min basal samples from monkeys over -1.5 to 0 h. Fosmetpantotenate was administered at t = 0, and 30 min dialysate samples were collected for an additional 4 h for mice and 3 h for monkeys.
Sample preparation for mouse dialysate samples: Concentrations of fosmetpantotenate, PA, and PPA in mouse dialysate were determined by Nextcea, Inc, Woburn, MA, using LC-MS/MS. Standard curves and QC samples containing fosmetpantotenate (D1 and D2) and the surrogate analytes for PA and PPA (^15N/^13C3-PA and ^15N/^13C3-PPA) were prepared fresh in 0.1% formic acid in water. Frozen study mouse dialysate samples were thawed in ice/water bath. Standards, QC samples, and thawed study dialysate samples (20 μL) were mixed with 20 μL 0.1% formic acid in water containing internal standard (50 ng/mL of ^15N/^13C3-fosmetpantotenate) and analyzed by LC-MS/MS.
LC-MS/MS analysis for mouse dialysate samples: Concentrations of fosmetpantotenate, PA, and PPA in dialysate from mice were determined by using LC-MS/MS conditions described for blood PK analysis by Nextcea, except dialysate samples were analyzed using an ACIEX API 5000 and flow rate was increased to 0.6 mL/min.
Quantitation of in vivo samples: Peak areas were integrated using Analyst software (AB Sciex, Concord, Ontario, Canada). Calibration curves for all blood samples from mouse and rat PK studies and mouse dialysate samples were prepared by plotting the analyte to internal standard (^15N/^13C3-fosmetpantotenate) peak area ratio vs concentration.

[2] = Pharmacokinetics in whole blood, cynomolgus monkeys; conditions: blood; for AUC: single PO fosmetpantotenate 300 mg/kg, mean (individual values), N = 2, analyte = label; for Fosmetpantotenate Mean Conc. / Fosmetpantotenate blood concentration, Cyno #1 / Fosmetpantotenate blood concentration, Cyno #2 / concentration at 0.083 h / concentration at 0.167 h / concentration at 0.333 h / concentration at 0.5 h / concentration at 1 h / concentration at 2 h / concentration at 4 h: fosmetpantotenate 300 mg/kg oral; for concentration at 0.083 h / concentration at 0.167 h / concentration at 0.333 h / concentration at 0.5 h / concentration at 1 h / concentration at 2 h / concentration at 4 h: male
[3] = Pharmacokinetics in whole blood, CD-1 mice; conditions: blood; for Conc. / Fosmetpantotenate Conc.: individual animals; for Fosmetpantotenate Conc.: male CD-1 mice, fosmetpantotenate 700 mg/kg oral, BQL <1.02 nM
[4] = single oral 700 mg/kg fosmetpantotenate, collection time 0 hr, BQL=8.08 nM
[5] = single oral 700 mg/kg fosmetpantotenate, collection time 0.5 hr, BQL=8.08 nM
[6] = single oral 700 mg/kg fosmetpantotenate, collection time 1 hr, BQL=8.08 nM
[7] = single oral 700 mg/kg fosmetpantotenate, collection time 1.5 hr, BQL=8.08 nM
[8] = single oral 700 mg/kg fosmetpantotenate, collection time 2 hr, BQL=8.08 nM
[9] = single oral 700 mg/kg fosmetpantotenate, collection time 2.5 hr, BQL=8.08 nM
[10] = single oral 700 mg/kg fosmetpantotenate, collection time 3 hr, BQL=8.08 nM
[11] = single oral 700 mg/kg fosmetpantotenate, collection time 3.5 hr, BQL=8.08 nM
[12] = single oral 700 mg/kg fosmetpantotenate, collection time 4 hr, BQL=8.08 nM
[13] = male, C57Bl6, mouse, striatal dialysate (brain microdialysate), other: direct infusion into the striatum via cannula, 125 µg per animal
[14] = male cynomolgus monkeys, 0.033 hr
[15] = cynomolgus monkey, in vivo, 300 mg/kg, Fosmetpantotenate Mean Conc., male cynomolgus monkeys
[16] = cynomolgus monkey, in vivo, 300 mg/kg, Fosmetpantotenate blood concentration, Cyno #1, male cynomolgus monkeys
[17] = cynomolgus monkey, in vivo, 300 mg/kg, Fosmetpantotenate blood concentration, Cyno #2, male cynomolgus monkeys
[18] = fosmetpantotenate 100 mg/kg PO, 4 hr
[19] = fosmetpantotenate 100 mg/kg PO, 8 hr
[20] = fosmetpantotenate 300 mg/kg PO, 2 hr
[21] = fosmetpantotenate 300 mg/kg PO, 8 hr

With COC(=O)CCNC(=O)[C@H](O)C(C)(C)COP(=O)(N[C@@H](C)C(=O)OC)Oc1ccccc1 (mixture of isomers) [Fosmetpantotenate] the “Fosmetpantotenate Total Concentration in Mouse Striatal Dialysate (Corrected for Dilution)” value [1, 4] was “BQL”, the “Fosmetpantotenate Total Concentration in Mouse Striatal Dialysate (Corrected for Dilution)” value [1, 5] was “BQL” and the “Fosmetpantotenate Total Concentration in Mouse Striatal Dialysate (Corrected for Dilution)” value [1, 6] was “BQL”. For the same compound, the “Fosmetpantotenate Total Concentration in Mouse Striatal Dialysate (Corrected for Dilution)” value [1, 7] was “BQL”, the “Fosmetpantotenate Total Concentration in Mouse Striatal Dialysate (Corrected for Dilution)” value [1, 8] was “BQL” and the “Fosmetpantotenate Total Concentration in Mouse Striatal Dialysate (Corrected for Dilution)” value [1, 9] was “BQL”. The “Fosmetpantotenate Total Concentration in Mouse Striatal Dialysate (Corrected for Dilution)” value [1, 10] was “BQL”, the “Fosmetpantotenate Total Concentration in Mouse Striatal Dialysate (Corrected for Dilution)” value [1, 11] was “BQL” and the “Fosmetpantotenate Total Concentration in Mouse Striatal Dialysate (Corrected for Dilution)” value [1, 12] was “BQL”. For the same compound, the “Fosmetpantotenate Total Concentration in Mouse Striatal Dialysate (Corrected for Dilution)” value ([1]; single oral dose (so in the source) 125 µg fosmetpantotenate per animal, collection time 0 hr) was 0.1306 µM and 0.109 µM and 0.0833 µM and 0.3107 µM and 0.3579 µM and 0.2168 µM and 0.4624 µM, the “Fosmetpantotenate Total Concentration in Mouse Striatal Dialysate (Corrected for Dilution)” value ([1]; single oral dose (so in the source) 125 µg fosmetpantotenate per animal, collection time 0.5 hr) was 27.5961 µM and 228.5933 µM and 5852.2469 µM and 2389.398 µM and 1463.0617 µM and 6013.9111 µM and 2121.0353 µM and the “Fosmetpantotenate Total Concentration in Mouse Striatal Dialysate (Corrected for Dilution)” value ([1]; single oral dose (so in the source) 125 µg fosmetpantotenate per animal, collection time 1 hr) was 3.7441 µM and 35.9218 µM and 1147.8164 µM and 370.2112 µM and 269.3327 µM and 936.0362 µM and 475.293 µM. The “Fosmetpantotenate Total Concentration in Mouse Striatal Dialysate (Corrected for Dilution)” value ([1]; single oral dose (so in the source) 125 µg fosmetpantotenate per animal, collection time 1.5 hr) was 0.2457 µM and 3.8638 µM and 77.1139 µM and 16.3443 µM and 13.2241 µM and 54.6749 µM and 52.7026 µM, the “Fosmetpantotenate Total Concentration in Mouse Striatal Dialysate (Corrected for Dilution)” value ([1]; single oral dose (so in the source) 125 µg fosmetpantotenate per animal, collection time 2 hr) was 0.2142 µM and 1.3919 µM and 11.6398 µM and 2.8307 µM and 6.9839 µM and 18.3812 µM and 13.5798 µM and the “Fosmetpantotenate Total Concentration in Mouse Striatal Dialysate (Corrected for Dilution)” value ([1]; single oral dose (so in the source) 125 µg fosmetpantotenate per animal, collection time 2.5 hr) was 0.2094 µM and 0.4624 µM and 4.0416 µM and 0.9538 µM and 6.8061 µM and 14.469 µM and 7.8892 µM. For the same compound, the “Fosmetpantotenate Total Concentration in Mouse Striatal Dialysate (Corrected for Dilution)” value ([1]; single oral dose (so in the source) 125 µg fosmetpantotenate per animal, collection time 3 hr) was 0.1664 µM and 0.2839 µM and 1.9869 µM and 1.0929 µM and 4.1402 µM and 11.268 µM and 3.6164 µM, the “Fosmetpantotenate Total Concentration in Mouse Striatal Dialysate (Corrected for Dilution)” value ([1]; single oral dose (so in the source) 125 µg fosmetpantotenate per animal, collection time 3.5 hr) was 0.1305 µM and 0.2331 µM and 1.7056 µM and 0.6693 µM and 3.2575 µM and 11.9147 µM and 1.9173 µM and the “Fosmetpantotenate Total Concentration in Mouse Striatal Dialysate (Corrected for Dilution)” value ([1]; single oral dose (so in the source) 125 µg fosmetpantotenate per animal, collection time 4 hr) was 0.1387 µM and 0.2171 µM and 1.4129 µM and 0.5497 µM and 2.2649 µM and 9.8939 µM and 1.5099 µM. For the same compound, the concentration at 0 h [1, 13] was 0.239 µM, the concentration at 0.5 h [1, 13] was 2590 µM and the concentration at 1 h [1, 13] was 463 µM. The concentration at 1.5 h [1, 13] was 31.2 µM, the concentration at 2 h [1, 13] was 7.86 µM and the concentration at 2.5 h [1, 13] was 4.98 µM. It also gave a concentration at 3 h [1, 13] of 3.22 µM, a concentration at 3.5 h [1, 13] of 2.83 µM and a concentration at 4 h [1, 13] of 2.28 µM. For the same compound, the “Fosmetpantotenate Total Concentration in Mouse Striatal Dialysate (Corrected for Dilution), Mean” value (shortened to “Fosmetpantotenate Total Concentration … Mean”) [1, 4] was “BQL”, the “Fosmetpantotenate Total Concentration … Mean” value [1, 5] was “BQL” and the “Fosmetpantotenate Total Concentration … Mean” value [1, 6] was “BQL”. The “Fosmetpantotenate Total Concentration … Mean” value [1, 7] was “BQL”, the “Fosmetpantotenate Total Concentration … Mean” value [1, 8] was “BQL” and the “Fosmetpantotenate Total Concentration … Mean” value [1, 9] was “BQL”. The “Fosmetpantotenate Total Concentration … Mean” value [1, 10] was “BQL”, the “Fosmetpantotenate Total Concentration … Mean” value [1, 11] was “BQL” and the “Fosmetpantotenate Total Concentration … Mean” value [1, 12] was “BQL”. For the same compound, the Cmax ([1]; striatal dialysate, fosmetpantotenate 700 mg/kg PO, analyte = label, not baseline-adjusted) was “<LLOQ”, the AUC [2] was 34,400 (13000, 55800) nM*h and the AUC ([2]; cynomolgus monkey, in vivo, po, 300 mg/kg, AUC) was 34 µM·h. The “Fosmetpantotenate Mean Conc.” value ([2]; male cynomolgus monkeys, 0 hr) was “BQL”, the “Fosmetpantotenate blood concentration, Cyno #1” value ([2]; male cynomolgus monkeys, 0 hr) was “BQL” and the “Fosmetpantotenate blood concentration, Cyno #2” value ([2]; male cynomolgus monkeys, 0 hr) was “BQL”. The “Fosmetpantotenate Mean Conc.” value [2, 14] was “BQL”, the “Fosmetpantotenate blood concentration, Cyno #1” value [2, 14] was “BQL” and the “Fosmetpantotenate blood concentration, Cyno #2” value [2, 14] was “BQL”. For the same compound, the “Fosmetpantotenate Mean Conc.” value ([2]; male cynomolgus monkeys, 8 hr) was “BQL”, the “Fosmetpantotenate blood concentration, Cyno #1” value ([2]; male cynomolgus monkeys, 8 hr) was “BQL” and the “Fosmetpantotenate blood concentration, Cyno #2” value ([2]; male cynomolgus monkeys, 8 hr) was “BQL”. The concentration at 0.083 h [2, 15] was 0.197 µM, the concentration at 0.167 h [2, 15] was 0.906 µM and the concentration at 0.333 h [2, 15] was 0.55 µM. It also gave a concentration at 0.5 h [2, 15] of 0.376 µM, a concentration at 1 h [2, 15] of 18.7 µM and a concentration at 2 h [2, 15] of 13.2 µM. For the same compound, the concentration at 4 h [2, 15] was 0.249 µM, the concentration at 0.083 h [2, 16] was 0.0419 µM and the concentration at 0.167 h [2, 16] was 0.0938 µM. The concentration at 0.333 h [2, 16] was 0.128 µM, the concentration at 0.5 h [2, 16] was 0.211 µM and the concentration at 1 h [2, 16] was 9.95 µM. It also gave a concentration at 2 h [2, 16] of 3.46 µM, a concentration at 4 h [2, 16] of 0.231 µM and a concentration at 0.083 h [2, 17] of 0.351 µM. For the same compound, the concentration at 0.167 h [2, 17] was 1.72 µM, the concentration at 0.333 h [2, 17] was 0.972 µM and the concentration at 0.5 h [2, 17] was 0.541 µM. The concentration at 1 h [2, 17] was 27.4 µM, the concentration at 2 h [2, 17] was 22.9 µM and the concentration at 4 h [2, 17] was 0.267 µM. The Conc. ([3]; fosmetpantotenate 100 mg/kg PO, 0.033 hr) was 6.22 nM and BQL and 218.78 ^(a) nM and 9.40 nM, the Conc. ([3]; fosmetpantotenate 100 mg/kg PO, 0.083 hr) was “BQL and 1.94 nM” and the Conc. ([3]; fosmetpantotenate 100 mg/kg PO, 0.167 hr) was “BQL and 2.30 nM”. For the same compound, the Conc. ([3]; fosmetpantotenate 100 mg/kg PO, 0.333 hr) was 2.38 nM and 1.98 nM, the Conc. ([3]; fosmetpantotenate 100 mg/kg PO, 0.5 hr) was “BQL and 1.43 nM” and the Conc. ([3]; fosmetpantotenate 100 mg/kg PO, 1 hr) was “BQL and 1.77 nM”. The Conc. ([3]; fosmetpantotenate 100 mg/kg PO, 2 hr) was “BQL”, the “Mean Conc.” value [3, 18] was “BQL” and the Conc. [3, 18] was “BQL”. The “Mean Conc.” value [3, 19] was “BQL”, the Conc. [3, 19] was “BQL” and the Conc. ([3]; fosmetpantotenate 300 mg/kg PO, 0.033 hr) was 1.41 nM and 49.95 nM and 66.65 nM and 2.76 nM. For the same compound, the Conc. ([3]; fosmetpantotenate 300 mg/kg PO, 0.083 hr) was 5.50 nM and 4.59 nM and 18.72 nM and 28.96 nM, the Conc. ([3]; fosmetpantotenate 300 mg/kg PO, 0.167 hr) was 1.62 nM and 1.56 nM and 3.71 nM and BQL and the Conc. ([3]; fosmetpantotenate 300 mg/kg PO, 0.333 hr) was 1.22 nM and 1.07 nM and 1.14 nM. The Conc. ([3]; fosmetpantotenate 300 mg/kg PO, 0.5 hr) was 1.14 nM and 1.24 nM, the Conc. ([3]; fosmetpantotenate 300 mg/kg PO, 1 hr) was “BQL” and the “Mean Conc.” value [3, 20] was “BQL”. The Conc. [3, 20] was “BQL”, the Conc. ([3]; fosmetpantotenate 300 mg/kg PO, 4 hr) was “BQL” and the “Mean Conc.” value [3, 21] was “BQL”. For the same compound, the Conc. [3, 21] was “BQL”, the “Fosmetpantotenate Conc.” value ([3]; 0.033 hr) was 61.71 nM and 230.17 nM and 51.34 nM and 195.45 nM and the “Fosmetpantotenate Conc.” value ([3]; 0.083 hr) was 24.28 nM and 3756.01(a) nM and 8.28 nM and 16.06 nM. The “Fosmetpantotenate Conc.” value ([3]; 0.167 hr) was 575.42 nM and 158.08 nM and 6.93 nM and 488.15 nM, the “Fosmetpantotenate Conc.” value ([3]; 0.333 hr) was 22.76 nM and the “Fosmetpantotenate Conc.” value ([3]; 0.5 hr) was 3.33 nM and 21.75 nM and 6.47 nM and 283.28 nM. For the same compound, the “Fosmetpantotenate Conc.” value ([3]; 1 hr) was 128.99 nM and 6.41 nM and 3.33 nM and 67.53 nM and the “Fosmetpantotenate Conc.” value ([3]; 2 hr) was 1.29 nM and 1.18 nM and 1.64 nM and 16.31 nM.

— paper PMC5844530, “Fosmetpantotenate (RE-024), a phosphopantothenate replacement therapy for pantothenate kinase-associated neurodegeneration: Mechanism of action and efficacy in nonclinical models” (PLoS ONE, 2018)
